Measured values published in article PMC6343479 (2018).

Key:
[1] = tested on: r(CUG)4 (RNA, repeat) CUGCUGCUGCUG; assay: ITC; details: single binding model; representative curve K = (1.06 ± 0.30) ×10^7 M^-1
[2] = tested on: CTG palindrome d(CTGCTGCAGCAG) (DNA, duplex) CTGCTGCAGCAG; assay: ITC; details: single binding model; representative curve K = (2.1 ± 0.3) ×10^6 M^-1

KD [1]: 99 ± 25 nM
KD [2]: 485 ± 73 nM
Compound: N=C(N)c1ccc(-c2ccc(-c3ccc(C(=N)N)cc3)o2)cc1
